Laboratory results published in patent US20100048728A1, “POLYCYCLIC DIANTHRAQUINONES AS INHIBITORS OF INFLAMMATORY CYTOKINES” (HY BIOPHARMA INC., priority 2006, published 2010).

How the values were obtained:
[1] = test system: acute IBD generated in BALB/C mice by DSS; test: DSS-induced acute inflammatory bowel disease (IBD) in mice, colon length; type: in vivo
Experimental: 36 male BABL/c mice anesthetized with Ketamine & Xylazine, are divided into six groups: • Control • Dextran sulfate sodium salt (DSS) alone −8000 MW • DSS with Hypericin 25 μg/animal • DSS with Hypericin 75 μg/animal • Hypericin 25 μg/animal • Hypericin 75 μg/animal
Acute IBD was generated in BALB/C mice (6 mice per group) by DSS administered via the drinking water (3.5% w/v) for 7 days. Hypericin was administered to these animals intraperitoneally at doses of 25 and 75 μg/mouse beginning 48 hrs prior to initiation of DSS administration and at 48 hr intervals thereafter. After 16 days the mice were sacrificed with high dose of sodium pentobarbital, the gastro-intestinal tract removed, its overall length measured and evaluated compared to control untreated healthy mice.

[2] = test system: Mouse L cells; test: Protection from TNFα-induced cell death, Hemacolor assay; type: cell-based
Experimental: Mouse L cells (ATCC) were cultured in complete MEM medium in 37° C. incubator with 5% CO2 and 95% humidity. The culture cells were divided to 6 separate groups: i. untreated control ii. TNFα25 u/ml iii. TNFα25 u/ml and Hypericin 0.5 μg/ml iv. TNFα25 u/ml and Hypericin 1 μg/ml v. TNFα25 u/ml and Hypericin 5 μg/ml vi. TNFα 25 u/ml and Hypericin 7.5 μg/ml.
Hypericin was applied to the cells 48 hr prior to TNFα administration. The experiment was terminated 24 hrs after TNF administration and cell viability evaluated using the Hemacolor assay.

[3] = test system: Herpes simplex type 1 virus induced skin inflammation; test: Inflammatory skin reactions induced by Herpes simplex type 1 virus in guinea pig dorsa; settings: topical 1.2 or 1.7 μg Hypericin/gr Vaseline, 3× per day for 3 days, evaluated after 96 hrs
[4] = test system: Mouse L cells; test: Protection from TNFα-induced cell death, MTT assay; type: cell-based
Experimental: Mouse L cells (ATCC) were cultured in complete MEM medium in 37° C. incubator with 5% CO2 and 95% humidity. The culture cells were divided to […]: i. untreated control ii. Hypericin 0.5 μg/ml iii. Hypericin 1 μg/ml iv. TNFα10 u/ml v. TNFα25 u/ml vi. TNFα10 u/ml and Hypericin 0.5 μg/ml vii. TNFα10 u/ml and Hypericin 1 μg/ml viii. TNFα 25 u/ml and Hypericin 0.5 μg/ml ix. TNFα25 u/ml and Hypericin 1 μg/ml.
Hypericin was applied to the cells 48 hr prior to TNFα administration. The experiment was terminated 24 hrs after TNF administration and cell viability evaluated by MTT assay.

Cc1cc(O)c2c(=O)c3c(O)cc(O)c4c5c(O)cc(O)c6c(=O)c7c(O)cc(C)c8c1c2c(c34)c(c78)c65 [Hypericin, hypericin]
colon length ([1]; Hypericin 25 μg/mouse without DSS): did not alter the colon length | colon length ([1]; Hypericin 75 μg/mouse intraperitoneally with 3.5% DSS, after 16 days, DSS alone 8.016 cm, control 12.6 cm, P≦0.039 vs DSS alone): 9.067 cm | colon length ([1]; Hypericin 75 μg/mouse without DSS): did not alter the colon length | prevention of TNFα induced cell death (Hemacolor) ([2]; Hypericin 0.5 μg/ml 48 hr before TNFα 25 u/ml, P≦0.0045): prevented cell death significantly | prevention of TNFα induced cell death (Hemacolor) ([2]; Hypericin 1 μg/ml 48 hr before TNFα 25 u/ml, P≦0.00049): prevented cell death significantly | prevention of TNFα induced cell death (Hemacolor) ([2]; Hypericin 5 μg/ml 48 hr before TNFα 25 u/ml, P≦0.00105): prevented cell death significantly | prevention of TNFα induced cell death (Hemacolor) ([2]; Hypericin 7.5 μg/ml 48 hr before TNFα 25 u/ml, P≦0.00159): prevented cell death significantly | prevention of TNFα induced cell death (Hemacolor) ([2]; Hypericin 15 μg/ml before TNFα 25 u/ml): did not prevent cell death | inflammatory erythema following infection with herpes virus [3]: significantly inhibited | prevention of TNFα induced cell death (MTT) ([4]; Hypericin 0.5 μg/ml 48 hr before TNFα 10 u/ml, P≦0.025758): prevented cell death significantly | prevention of TNFα induced cell death (MTT) ([4]; Hypericin 0.5 μg/ml 48 hr before TNFα 25 u/ml, P≦0.023446): prevented cell death significantly | prevention of TNFα induced cell death (MTT) ([4]; Hypericin 1 μg/ml 48 hr before TNFα 10 u/ml, P≦0.014777): prevented cell death significantly | prevention of TNFα induced cell death (MTT) ([4]; Hypericin 1 μg/ml 48 hr before TNFα 25 u/ml, P≦0.047198): prevented cell death significantly | cell viability (MTT) ([4]; Hypericin alone, compared to the control group): did not alter cell viability
